# In PubChem BioAssay AID1159585 (Gregory J. Crowther, 2016):
# Target: Calcium-dependent protein kinase 1 (Plasmodium falciparum (isolate 3D7)) (UniProt P62344)
# Assay: PfCDPK1 kinase inhibitors, biochemical, TCAMS library (AID 1159585);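 also: inhibitors leave more ATP so luminescence rises with inhibition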
# Settings: recombinant PfCDPK1, Kinase-Glo ATP depletion luminescence
# Chain of Calcium-dependent protein kinase 1 (Plasmodium falciparum (isolate 3D7)) (P62344 whole entry, looked up): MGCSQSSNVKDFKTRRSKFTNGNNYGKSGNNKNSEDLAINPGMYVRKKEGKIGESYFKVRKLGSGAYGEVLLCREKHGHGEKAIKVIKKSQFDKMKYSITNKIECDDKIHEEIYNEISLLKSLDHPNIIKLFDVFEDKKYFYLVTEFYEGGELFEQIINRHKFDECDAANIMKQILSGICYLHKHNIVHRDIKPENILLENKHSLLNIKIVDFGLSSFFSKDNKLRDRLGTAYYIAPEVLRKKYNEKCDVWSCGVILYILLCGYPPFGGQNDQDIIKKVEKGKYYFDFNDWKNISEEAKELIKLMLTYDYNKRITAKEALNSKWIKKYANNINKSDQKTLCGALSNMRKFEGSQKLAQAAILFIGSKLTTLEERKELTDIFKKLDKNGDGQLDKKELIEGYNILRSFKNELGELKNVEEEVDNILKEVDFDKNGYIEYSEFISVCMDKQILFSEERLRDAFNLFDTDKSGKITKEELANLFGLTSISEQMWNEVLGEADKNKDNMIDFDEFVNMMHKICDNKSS
row,SMILES,IC50
1,Oc1cc(-c2nc(C3(CNCc4ccc(Cl)cc4)CCCCC3)[nH]c2-c2ccncc2)ccc1Cl,0.846 µM
2,CCn1c(-c2nonc2N)nc2c(-c3ccccc3)ncc(OCCCNCCCN3CCOCC3)c21,0.042 µM
3,CS(=O)(=O)Cc1ccc(Nc2nccc(-c3c(-c4cccc(NC(=O)c5c(F)cccc5F)c4)nn4ccccc34)n2)cc1,0.02 µM
4,CCn1c(-c2nonc2N)nc2c(-c3cccc(Cl)c3)ncc(OCCCNCCc3cnc[nH]3)c21,0.138 µM
5,CN(C)CCNCc1ccc(-c2ccc3c(Nc4ccc(Oc5ccccc5)cc4)ccnc3c2)o1,0.681 µM
6,CC(C)(CNCc1ccc(C(F)(F)F)cc1)c1nc(-c2ccc(Cl)c(O)c2)c(-c2ccnc(N)n2)[nH]1,0.353 µM
7,CN1CCN(CCCNCc2cccc(Nc3nccc(Nc4ccc(Oc5ccccc5)cc4)n3)c2)CC1,0.261 µM
8,O=c1[nH]ccc2nc(N[C@@H]3CCCNC3)nc(Nc3ccc(S(=O)(=O)N4CCOCC4)cc3)c12,0.146 µM
9,CC(C)(NCc1ncc[nH]1)c1nc(-c2ccc(Cl)c(O)c2)c(-c2ccncc2)[nH]1,0.144 µM
10,CCn1c(-c2nonc2N)nc2c(-c3cccc(NC(=O)Nc4ccc(C#N)cc4)c3)ncc(OCCCN)c21,0.235 µM
11,CC(=O)Nc1cccc(Nc2nccc(Nc3ccc(Oc4ccccc4)cc3)n2)c1,0.425 µM
12,Cc1cccc(Nc2nc(N[C@@H]3CCCNC3)nc3cc[nH]c(=O)c23)c1,0.023 µM
13,NCCCNc1nc(Nc2cccc(C(N)=O)c2)c2c(=O)[nH]ccc2n1,0.75 µM
14,CS(=O)(=O)Nc1cccc(-c2cnc3[nH]cc(-c4ccc(CN)cc4)c3c2)c1,0.552 µM
15,O=C(NCCN1CCC(c2ccncc2)CC1)c1ccc(Nc2nccc(Nc3ccc(Oc4ccccc4)cc3)n2)cc1,0.135 µM
16,CNC(=O)c1ccccc1Nc1nc(Nc2ccc(CCN3CCN(C)CC3)cc2)ncc1Cl,0.047 µM
17,CN1CCN(c2ccc(Nc3ncc(Cl)c(Nc4cccnc4C(N)=O)n3)cc2)CC1,0.012 µM
18,CN(C)CCN(C)Cc1ccc(-c2ccc3c(Nc4ccc(Cl)cc4F)ccnc3c2)o1,0.604 µM
19,c1cncc(Oc2ccc(Nc3ccnc4cc(-c5cccc(CNCCN6CCOCC6)c5)ccc34)cc2)c1,0.705 µM

row,SMILES,IC50
1,O=C(NCCN1CCCCC1)c1ccc(Nc2nccc(Nc3ccc(Oc4ccccc4)cc3)n2)cc1,0.103 µM
2,CC(c1cccc(Nc2nccc(-c3c(-c4cccc(NC(=O)c5c(F)cccc5F)c4)nn4ncccc34)n2)c1)S(C)(=O)=O (configuration not stated),0.095 µM
3,COc1ccc(Nc2ncc(OC)c(Nc3ccccc3C(N)=O)n2)cc1N1CCN(C)CC1,0.967 µM
4,Cn1cc(-c2ccnc3[nH]c(-c4cccc(CNC5CCC(O)CC5)c4)cc23)cn1 (configuration not stated),0.046 µM
5,COc1ccc(-c2cnc3ccc(N4CCCC4)nn23)cc1OC,0.31 µM
6,CN1CCN(c2ccc(Nc3nccc(-c4cnn5ncccc45)n3)cc2Cl)CC1,0.232 µM
7,Nc1ncc(-c2cn[nH]c2)cc1-c1nc2ccc(Cl)cc2[nH]1,0.834 µM
8,Cc1nnc(-c2cccc(Nc3ccnc4cc(-c5nccs5)ccc34)c2)o1,0.186 µM
9,N#CCc1ccc(Nc2nccc(Nc3ccc(Oc4ccccc4)cc3)n2)cc1,0.798 µM
10,CCOC(=O)c1cccc(NC(=O)Nc2cccc(-c3ncc(OCCCN)c4c3nc(-c3nonc3N)n4CC)c2)c1,0.294 µM
11,CC(C)(CNC(=O)C1CCN(Cc2ccc(Cl)cc2)CC1)c1nc(-c2ccc(Cl)c(O)c2)c(-c2ccncc2)[nH]1,0.347 µM
12,CN(C)Cc1ccc(-c2ccc3c(Nc4ccc(Oc5ccccn5)cc4)ccnc3c2)o1,0.513 µM
13,Nc1ncnc2occ(-c3ccc(NC(=O)Nc4cc(C(F)(F)F)ccc4F)cc3)c12,0.165 µM
14,Oc1cccc(Nc2ccnc3cc(-c4nccs4)ccc23)c1,0.997 µM
15,CCNC(=O)Nc1ccc(-c2cnc(N)c(-c3nc4ccc(OC)cc4[nH]3)c2)cc1,0.145 µM
16,Cc1ccc(Nc2nc3cc(N(C)c4ccnc(Nc5cccc(CCS(C)(=O)=O)c5)n4)ccc3n2C)cc1,0.16 µM
17,OC1CCC(Nc2ccc3ncc(-c4ccc(Cl)cc4)n3n2)CC1 (configuration not stated),0.503 µM
18,CC(C)(CNCCOc1ccc(Cl)cc1)c1nc(-c2ccc(Cl)c(O)c2)c(-c2ccnc(N)n2)[nH]1,0.755 µM
